{"source": "patent US20210002295A1", "about": "“SMALL MOLECULE DEGRADERS THAT RECRUIT DCAF15” (Dana-Farber Cancer Institute, Inc., priority 2017, published 2021)", "origin": "cited, not measured here", "target": "bromodomains of BET proteins", "settings": "stated for small molecule BET inhibitors"}
{"smiles": "Cc1sc2c(c1C)C(c1ccc(Cl)cc1)=N[C@@H](CC(=O)OC(C)(C)C)c1nnc(C)n1-2", "note": "[JQ1]", "values": [{"measurement": "Kd", "result": "~10", "unit": "nM"}]}
